Patent US7419950B2, “Methods of inhibiting ectopic calcification” (University of Washington, priority 1998, dated 2008)

Assays:
[1] = tested on: human vascular smooth muscle cells (HSMC); assay: Calcium deposition by human vascular smooth muscle cells in high-phosphate calcification medium; format: cell-based; details: for calcium deposition into HSMC matrix (in words): high-phosphate calcification medium
Method: (§1) Calcification was assessed by a modification of the method described by Jono et al., Arterioscler. Thromb. Vasc. Biol. 17:1135-1142 (1997) which is incorporated herein by reference. Briefly, the cultures were decalcified with 0.6 N HCl for 24 hours. The calcium content of the HCl supernatant was determined calorimetrically by the o-cresolphthalein complexone method (Calcium Kit, Sigma). After decalcification, the cultures were washed with phosphate-buffered saline (PBS) and solubilized with 0.1 N NaOH/0.1% sodium dodecyl sulfate(SDS). Total protein content was measured with a Bio-Rad Protein Assay Kit (Bio-Rad). The calcium content of the cell layer was normalized to protein content. Phosphorus and calcium concentrations in the culture medium were measured by the phosphomolybdate complex method (Phosphorus Kit, Sigma) and the o-cresolphthalein complexone method (Calcium Kit, Sigma), respectively. Values were expressed as the mean +/− SEM, n=3.
HSMC were routinely subcultured in growth medium. At confluence, cells were switched to calcification medium (DMEM containing 15% FBS and 1 mM sodium pyruvate in the presence of 2 mM inorganic phosphate supplemented with 100 U/ml penicillin and 100 μg/ml of streptomycin) for up to 14 days. The medium was replaced with fresh medium every 2 days. For time-course experiments, the first day of culture in calcification medium was defined as day 0. Calcium deposition was quantified and assessed histochemically and cytochemically as described above in Example I.
Osteopontin proteins and functional fragments were assayed for their ability to inhibit ectopic calcification using the HSMC calcification system described in Example III. The osteopontin proteins include full-length human recombinant osteopontin as well as recombinant N-terminal and C-terminal human osteopontin fragments similar to those that would be formed following thrombin cleavage of the native protein, as described by Smith et al., supra (1996). Two N-terminal fragments were used, 10N and 30N, which refer to two differ splice variants of osteopontin. The 30N splice variant contains an additional 14 amino acids, […] (SEQ ID NO: 7), which correspond to exon 5 (amino acids 59-72). The ION fragment contains amino acids 17-58 and 73-160 of native osteopontin, whereas the 30N fragment contains amino acids 17-169. The 10C fragment contains the C-terminal domain of osteopontin, amino acids 170-317.
Recombinant osteopontin and its functional fragments were assayed for their ability to inhibit ectopic calcification of human smooth muscle cells (HSMC) either prior to or following phosphorylation by casein kinase II. The amount of phosphate incorporated into osteopontin (OPN) and its fragments achieved by casein kinase II phosphorylation is shown in FIG. 5b.

[2] = tested on: bovine aortic smooth muscle cells (BASMC); assay: Calcium deposition by cultured bovine aortic smooth muscle cells in calcification medium; format: cell-based; details: for inhibition of calcium deposition (in words): equimolar concentrations as were effective for osteopontin
Method: In order to examine calcification by cultured BASMC smooth muscle cells, calcification was induced by the method described by Shioi et al., Arterioscler Thromb Vasc Biol., 15:2003-2009 (1995), which is incorporated herein by reference. Briefly, BASMC were cultured in growth medium for 4 days, and then switched to calcification medium (DMEM (high glucose, 4.5 g/L) containing 15% FBS and 10 mM sodium pyruvate in the presence of 10 mM of β-glycerophosphate (unless otherwise stated), 10^-7 M insulin, and 50 μg/ml of ascorbic acid, supplemented with 100 U/ml of penicillin and 100 μg/ml of streptomycin) for 10 days. The medium was replaced with fresh medium twice a week. In the time course experiments, the beginning day of culture in calcification medium was defined as day 0.
as §1
To examine the effect of osteopontin on BASMC-mediated calcification in vitro, soluble osteopontin or vehicle alone (0.1 mM sodium citrate) was added to the calcifying BASMC cultures. […] In contrast, vehicle alone had no effect (FIG. 2a).
To exclude the possibility that contaminants in the osteopontin preparation were responsible for the observed inhibitory effect, immunodepletion experiments were performed. Medium containing 10 μg/ml osteopontin was mixed with […] anti-osteopontin (OP-199) or normal goat IgG, prepared by the method described by Liaw et al., supra (1994) and incubated for 1 hr at room temperature. 250 mg protein-A-sepharose was added and incubated for 1 hr at room temperature. The antibody-protein A sepharose complexes were removed by centrifugation, and the remaining supernatant diluted twenty-fold for use in the calcification studies. Unpaired Student's t test was employed to compare groups and a probability value (p) value less than 0.05 was considered significant.

alkaline phosphatase = target: T1, alkaline phosphatase (Bos taurus, UniProt P09487); assay: Cellular alkaline phosphatase activity of BASMC cultures; format: cell-based, bovine; details: cells in calcification medium
T1 construct: cellular proteins were solubilized with 1% Triton X-100 in 0.9% NaCl and centrifuged; endogenous in cells; host or cells: BASMC (bovine aortic smooth muscle cells), detergent lysate supernatant
T1 sequence (P09487 18-499): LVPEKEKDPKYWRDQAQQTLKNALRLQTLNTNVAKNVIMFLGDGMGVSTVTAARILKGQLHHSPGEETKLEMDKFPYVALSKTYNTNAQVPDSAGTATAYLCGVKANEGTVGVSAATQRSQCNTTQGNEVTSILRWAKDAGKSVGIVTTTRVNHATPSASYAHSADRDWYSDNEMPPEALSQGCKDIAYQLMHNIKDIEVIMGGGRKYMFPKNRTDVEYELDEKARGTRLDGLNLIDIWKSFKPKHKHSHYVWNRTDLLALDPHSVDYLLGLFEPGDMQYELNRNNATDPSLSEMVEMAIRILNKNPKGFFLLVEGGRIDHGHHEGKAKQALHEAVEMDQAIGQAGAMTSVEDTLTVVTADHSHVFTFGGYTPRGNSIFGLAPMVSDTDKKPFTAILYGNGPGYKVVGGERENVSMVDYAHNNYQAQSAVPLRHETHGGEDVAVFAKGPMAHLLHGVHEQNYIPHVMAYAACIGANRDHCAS
Method: For cellular alkaline phosphatase activity measurements, cells were cultured in calcification medium in the presence of various concentrations of osteopontin. Cells were washed three times with PBS and cellular proteins were solubilized with 1% Triton X-100 in 0.9% NaCl and centrifuged. Supernatants were assayed for alkaline phosphatase activity by the method described by Bessey et al., J. Biol. Chem. 164:321-329 (1946), which is incorporated herein by reference. One unit was defined as the activity producing 1 nmol of p-nitrophenol within 1 minute. Protein concentrations were determined with a Bio-Rad protein assay kit (Bio-Rad). The data were normalized to the protein content of the cell layer.

BASMC = assay: Phosphorus concentration in BASMC culture medium; format: cell-based, bovine; details: BASMC calcification medium
Method: as §1

O=P(O)(O)O [inorganic phosphate]
calcium deposition ([1]; 2 mM inorganic phosphate, day 9, mean +/-SEM): 210.3+/−2.4 μg/mg protein

c1ccc([C@H]2CN3CCSC3=N2)cc1 [levamisole, reference compound]
IC50 ([2]; Bos taurus, BASMC cultures in calcification medium, read-out: half-maximal inhibition of calcium deposition): 50 µM | calcium deposition in BASMC cultures (in words) ([2]; levamisole versus vehicle): dose-dependently inhibited | alkaline phosphatase activity of BASMC cultures (in words) (alkaline phosphatase): dose-dependently inhibited | phosphorus concentration of the culture medium (in words) (BASMC): reduced

O=P(O)(O)OC(CO)CO [β-glycerophosphate]
EC50 ([2]; BASMC, initial concentration of β-glycerophosphate in medium, read-out: concentration giving half-maximal calcium deposition): ~4000 µM

OPN: full-length human recombinant osteopontin prepared as a His-tagged protein; tested with or without casein kinase II phosphorylation
inhibition of ectopic calcification, dose relation (in words) ([1]; 0.1 μg/ml to 5.0 μg/ml): dose-dependent | time to significantly reduced calcium deposition ([1]; after addition to HSMC): ≤ 60 min | inhibition of calcification ([1]; by 90 minutes following addition): approximately 50% | calcium deposition into HSMC matrix (in words) ([1]; non-phosphorylated forms): do not significantly affect | HSMC calcification (in words) ([1]; phosphorylated by casein kinase II, 15 nM): able to inhibit HSMC calcification | HSMC calcification (in words) ([1]; phosphorylated protein dephosphorylated with alkaline phosphatase (ALP)): reverses this inhibitory ability | calcium deposition into HSMC matrix (in words) ([1]; protein phosphorylated by casein kinase II): reduced to basal levels

fibronectin: bovine fibronectin (TELIOS), RGD-containing extracellular matrix molecule [reference compound]
inhibition of calcium deposition (in words) [2]: unable to inhibit calcium deposition

osteopontin: Rat osteopontin purified from the conditioned medium of rat neonatal smooth muscle cell cultures, >95% pure
inhibition of BASMC culture calcification ([2]; 0.5 ug/ml added on day 7 after start of mineralization, read at day 10): 50% | fold inhibition of calcification versus vehicle ([2]; 0.5 ug/ml in medium): 18 fold | inhibition of calcification ([2]; 0.5 μg/ml, 10 days): approximately 90% | calcium deposition in cell layer ([2]; 0.5 ug/ml, no immunodepletion): 0.33 ± 0.06 µmol/mg | inhibition of calcification (in words) ([2]; 5 μg/ml, 10 days): almost completely inhibited | calcification of BASMC (in words) ([2]; 0.05, 0.5 and 5 μg/ml, assessed at 10 days): dose-dependently inhibited | dependence of inhibitory effect on mineralization on calcium (in words) ([2]; medium supplemented with increasing calcium, 10 days): calcium dependent | calcium deposition in cell layer ([2]; osteopontin solution immunodepleted with anti-osteopontin antibody (OP-199)): 2.60 ± 0.43 µmol/mg | calcium deposition in cell layer ([2]; osteopontin solution treated with normal goat IgG): 0.49 ± 0.10 µmol/mg | alkaline phosphatase activity of BASMC cultures (in words) (alkaline phosphatase): did not affect | phosphorus concentration of the culture medium (in words) (BASMC): did not reduce

vitronectin [reference compound]
inhibition of calcium deposition (in words) [2]: unable to inhibit calcium deposition
